Test results from patent publication US10106544B2, “1,2-dihydro-3H-pyrrolo[1,2-C]imidazol-3-one derivatives and their use as antibacterial agents” (priority 2014, dated 2018).
In brackets after ≈: the same amount, converted by molar mass. Like-named read-outs stand apart in the source and are kept apart here.

What was measured:
Assay in all cases: Bacterial growth minimal inhibitory concentration (microdilution, cation-adjusted Mueller-Hinton Broth)
Format in all cases: cell-based
E. coli ATCC25922 = conditions: for MIC: Escherichia coli
Outline: (§1)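 Broth microdilution in cation-adjusted Mueller-Hinton Broth per CLSI M7-A7, MIC in mg/L. K. pneumoniae A-651 is multiply resistant, including to quinolones. E. coli ATCC25922 and P. aeruginosa ATCC27853 are quinolone-sensitive.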

P. aeruginosa ATCC27853 = conditions: for MIC: Pseudomonas aeruginosa; for MIC for P. aeruginosa ATCC27853: quinolone-sensitive strain
Outline: as §1

K. pneumoniae A-651 = conditions: for MIC: Klebsiella pneumoniae
Outline: as §1

[1] = ATCC25922, quinolone-sensitive strain, read-out: MIC for E. coli ATCC25922
[2] = ATCC27853, quinolone-sensitive strain, read-out: MIC for P. aeruginosa ATCC27853
[3] = A651, multiply-resistant strain (in particular quinolone-resistant), read-out: MIC for K. Pneumoniae A-651
[4] = multiply-resistant strain (in particular quinolone-resistant)

Compound | MIC (E. coli ATCC25922; [1]) [mg/L] | MIC (P. aeruginosa ATCC27853; [2]) [mg/L] | MIC (K. pneumoniae A-651; [3]) [mg/L] | other results
COc1ccc(-c2cc3n(c2)C(=O)N(CC[C@](C)(C(=O)NO)S(C)(=O)=O)C3)c(Cl)c1 [Example 52, (R)-4-(6-(2-chloro-4-methoxyphenyl)-3-oxo-1H-pyrrolo[1,2-c]imidazol-2(3H)-yl)-N-hydroxy-2-methyl-2-(methylsulfonyl)butanamide] | ≤ 0.063 | 2 (≈ 4.39 µM) | ≤ 0.063 | –
C[C@@](CCN1Cc2cc(-c3ccc(C(F)(F)F)cc3F)cn2C1=O)(C(=O)NO)S(C)(=O)=O [Example 53, (R)-4-(6-(2-fluoro-4-(trifluoromethyl)phenyl)-3-oxo-1H-pyrrolo[1,2-c]imidazol-2(3H)-yl)-N-hydroxy-2-methyl-2-(methylsulfonyl)butanamide] | 0.25 (≈ 0.524 µM) | 8 (≈ 16.8 µM) | 0.25 (≈ 0.524 µM) | –
C[C@@](CCN1Cc2cc(-c3ccc(F)c(F)c3F)cn2C1=O)(C(=O)NO)S(C)(=O)=O [Example 54, (R)-N-hydroxy-2-methyl-2-(methylsulfonyl)-4-(3-oxo-6-(2,3,4-trifluorophenyl)-1H-pyrrolo[1,2-c]imidazol-2(3H)-yl)butanamide] | 0.125 (≈ 0.281 µM) | 1 (≈ 2.25 µM) | 1 (≈ 2.25 µM) | –
COc1ccc(-c2cc3n(c2)C(=O)N(CC[C@](C)(C(=O)NO)S(C)(=O)=O)C3)c(F)c1F [Example 55, (R)-4-(6-(2,3-difluoro-4-methoxyphenyl)-3-oxo-1H-pyrrolo[1,2-c]imidazol-2(3H)-yl)-N-hydroxy-2-methyl-2-(methylsulfonyl)butanamide] | 0.125 (≈ 0.273 µM) | 4 (≈ 8.74 µM) | 1 (≈ 2.19 µM) | –
C[C@@](CCN1Cc2cc(C#CC#CC3(CO)CCC3)cn2C1=O)(C(=O)NO)S(C)(=O)=O [Example 56, (R)-N-hydroxy-4-(6-((1-(hydroxymethyl)cyclobutyl)buta-1,3-diyn-1-yl)-3-oxo-1H-pyrrolo[1,2-c]imidazol-2(3H)-yl)-2-methyl-2-(methylsulfonyl)butanamide] | 0.25 (≈ 0.559 µM) | 2 (≈ 4.47 µM) | 1 (≈ 2.23 µM) | –
C[C@@](CCN1Cc2cc(C#CC#CC3(CO)COC3)cn2C1=O)(C(=O)NO)S(C)(=O)=O [Example 57] | – | – | – | MIC for E. coli ATCC25922 (E. coli ATCC25922; quinolone-sensitive strain): 1 mg/L; MIC for P. aeruginosa ATCC27853 (P. aeruginosa ATCC27853): 4 mg/L; MIC for K. Pneumoniae A-651 (K. pneumoniae A-651; [4]): 2 mg/L
C[C@@](CCN1Cc2cc(C#CC#CCNS(C)(=O)=O)cn2C1=O)(C(=O)NO)S(C)(=O)=O [Example 58, (R)-N-hydroxy-2-methyl-4-(6-(5-(methylsulfonamido)penta-1,3-diyn-1-yl)-3-oxo-1H-pyrrolo[1,2-c]imidazol-2(3H)-yl)-2-(methylsulfonyl)butanamide] | 4 (≈ 8.5 µM) | 4 (≈ 8.5 µM) | 8 (≈ 17 µM) | –
CC(C)(C)OC(=O)N1CC(O)(c2ccc(C#Cc3cc4n(c3)C(=O)N(CC[C@](C)(C(=O)NO)S(C)(=O)=O)C4)cc2)C1 [Example 59, tert-butyl (R)-3-hydroxy-3-(4-((2-(4-(hydroxyamino)-3-methyl-3-(methylsulfonyl)-4-oxobutyl)-3-oxo-2,3-dihydro-1H-pyrrolo[1,2-c]imidazol-6-yl)ethynyl)phenyl)azetidine-1-carboxylate] | 1 (≈ 1.7 µM) | 8 (≈ 13.6 µM) | 1 (≈ 1.7 µM) | –
C[C@]1(CO)C[C@@H]1C#CC#Cc1cc2n(c1)C(=O)N(CC[C@](C)(C(=O)NO)S(C)(=O)=O)C2 [Example 61, (R)-N-hydroxy-4-(6-(((1R,2S)-2-(hydroxymethyl)-2-methylcyclopropyl)buta-1,3-diyn-1-yl)-3-oxo-1H-pyrrolo[1,2-c]imidazol-2(3H)-yl)-2-methyl-2-(methylsulfonyl)butanamide] | 0.25 (≈ 0.559 µM) | 0.25 (≈ 0.559 µM) | 0.25 (≈ 0.559 µM) | –
C[C@@](CCN1Cc2cc(C#CC#CC3CN(C(=O)CO)C3)cn2C1=O)(C(=O)NO)S(C)(=O)=O [Example 62, (R)-N-hydroxy-4-(6-((1-(2-hydroxyacetyl)azetidin-3-yl)buta-1,3-diyn-1-yl)-3-oxo-1H-pyrrolo[1,2-c]imidazol-2(3H)-yl)-2-methyl-2-(methylsulfonyl)butanamide] | 1 (≈ 2.1 µM) | 1 (≈ 2.1 µM) | 4 (≈ 8.39 µM) | –
C[C@@](CCN1Cc2cc(C#CC#CCC3(O)COC3)cn2C1=O)(C(=O)NO)S(C)(=O)=O [Example 63, (R)-N-hydroxy-4-(6-(5-(3-hydroxyoxetan-3-yl)penta-1,3-diyn-1-yl)-3-oxo-1H-pyrrolo[1,2-c]imidazol-2(3H)-yl)-2-methyl-2-(methylsulfonyl)butanamide] | 2 (≈ 4.45 µM) | 4 (≈ 8.9 µM) | 4 (≈ 8.9 µM) | –
C[C@@](CCN1Cc2cc(C#CC#CC3(O)CCOCC3)cn2C1=O)(C(=O)NO)S(C)(=O)=O [Example 64, (R)-N-hydroxy-4-(6-((4-hydroxytetrahydro-2H-pyran-4-yl)buta-1,3-diyn-1-yl)-3-oxo-1H-pyrrolo[1,2-c]imidazol-2(3H)-yl)-2-methyl-2-(methylsulfonyl)butanamide] | 4 (≈ 8.63 µM) | 4 (≈ 8.63 µM) | 8 (≈ 17.3 µM) | –
C[C@@](CCN1Cc2cc(C#CC#C[C@@H]3CC[C@@H](N)CO3)cn2C1=O)(C(=O)NO)S(C)(=O)=O [Example 65, (R)-4-(6-(((2S,5R)-5-aminotetrahydro-2H-pyran-2-yl)buta-1,3-diyn-1-yl)-3-oxo-1H-pyrrolo[1,2-c]imidazol-2(3H)-yl)-N-hydroxy-2-methyl-2-(methylsulfonyl)butanamide] | 2 (≈ 4.32 µM) | 1 (≈ 2.16 µM) | 8 (≈ 17.3 µM) | –
C[C@@](CCN1Cc2cc(C#Cc3ccc(C4(N)CC4)s3)cn2C1=O)(C(=O)NO)S(C)(=O)=O [Example 68, (R)-4-(6-((5-(1-aminocyclopropyl)thiophen-2-yl)ethynyl)-3-oxo-1H-pyrrolo[1,2-c]imidazol-2(3H)-yl)-N-hydroxy-2-methyl-2-(methylsulfonyl)butanamide] | 0.125 (≈ 0.262 µM) | 1 (≈ 2.1 µM) | 0.125 (≈ 0.262 µM) | –
C[C@@](CCN1Cc2cc(C#Cc3ccc(C4(N)COC4)cc3)cn2C1=O)(C(=O)NO)S(C)(=O)=O [Example 69, (R)-4-(6-((4-(3-aminooxetan-3-yl)phenyl)ethynyl)-3-oxo-1H-pyrrolo[1,2-c]imidazol-2(3H)-yl)-N-hydroxy-2-methyl-2-(methylsulfonyl)butanamide] | 0.5 (≈ 1.03 µM) | 2 (≈ 4.11 µM) | 2 (≈ 4.11 µM) | –
C[C@@](CCN1Cc2cc(C#Cc3ccc(C4(CO)COC4)cc3)cn2C1=O)(C(=O)NO)S(C)(=O)=O [Example 70, (R)-N-hydroxy-4-(6-((4-(3-(hydroxymethyl)oxetan-3-yl)phenyl)ethynyl)-3-oxo-1H-pyrrolo[1,2-c]imidazol-2(3H)-yl)-2-methyl-2-(methylsulfonyl)butanamide] | 1 (≈ 1.99 µM) | 2 (≈ 3.99 µM) | 2 (≈ 3.99 µM) | –
C[C@@](CCN1Cc2cc(C#Cc3ccc(NC(=O)CO)cc3)cn2C1=O)(C(=O)NO)S(C)(=O)=O [Example 71, (R)-N-hydroxy-4-(6-((4-(2-hydroxyacetamido)phenyl)ethynyl)-3-oxo-1H-pyrrolo[1,2-c]imidazol-2(3H)-yl)-2-methyl-2-(methylsulfonyl)butanamide] | 0.25 (≈ 0.512 µM) | 1 (≈ 2.05 µM) | 1 (≈ 2.05 µM) | –
C[C@@](CCN1Cc2cc(C#Cc3ccc(C4(N)CC4)cc3)cn2C1=O)(C(=O)NO)S(C)(=O)=O [Example 72, (R)-4-(6-((4-(1-aminocyclopropyl)phenyl)ethynyl)-3-oxo-1H-pyrrolo[1,2-c]imidazol-2(3H)-yl)-N-hydroxy-2-methyl-2-(methylsulfonyl)butanamide] | – | – | – | MIC (E. coli ATCC25922; ATCC25922, read-out: MIC for E. coli ATCC25922): 0.125 mg/L (≈ 0.266 µM); MIC (P. aeruginosa ATCC27853; ATCC27853, read-out: MIC for P. aeruginosa ATCC27853): 0.5 mg/L (≈ 1.06 µM); MIC (K. pneumoniae A-651; A651, read-out: MIC for K. Pneumoniae A-651): 0.25 mg/L (≈ 0.531 µM)
C[C@@](CCN1Cc2cc(C#CC#CC[C@]3(O)C[C@@H](CO)C3)cn2C1=O)(C(=O)NO)S(C)(=O)=O [Example 73, (R)-N-hydroxy-4-(6-(5-((1s,3R)-1-hydroxy-3-(hydroxymethyl)cyclobutyl)penta-1,3-diyn-1-yl)-3-oxo-1H-pyrrolo[1,2-c]imidazol-2(3H)-yl)-2-methyl-2-(methylsulfonyl)butanamide] | – | – | – | MIC for E. coli ATCC25922 (E. coli ATCC25922; quinolone-sensitive strain): 8 mg/L; MIC for P. aeruginosa ATCC27853 (P. aeruginosa ATCC27853): 4 mg/L; MIC for K. Pneumoniae A-651 (K. pneumoniae A-651; [4]): 16 mg/L
C[C@@](CCN1Cc2cc(C#CC#CC3(COC(=O)OCOP(=O)(O)O)CC3)cn2C1=O)(C(=O)NO)S(C)(=O)=O [Example 75, (R)-(1-((2-(4-(hydroxyamino)-3-methyl-3-(methylsulfonyl)-4-oxobutyl)-3-oxo-2,3-dihydro-1H-pyrrolo[1,2-c]imidazol-6-yl)buta-1,3-diyn-1-yl)cyclopropyl)methyl((phosphonooxy)methyl)carbonate] | – | – | – | MIC for E. coli ATCC25922 (E. coli ATCC25922; quinolone-sensitive strain): 1 mg/L; MIC for P. aeruginosa ATCC27853 (P. aeruginosa ATCC27853): 2 mg/L; MIC for K. Pneumoniae A-651 (K. pneumoniae A-651; [4]): 2 mg/L
CC(C)(O)c1ncc(C#Cc2cc3n(c2)C(=O)N(CC[C@](C)(C(=O)NO)S(C)(=O)=O)C3)s1 [Example 76, (R)-N-hydroxy-4-(6-((2-(2-hydroxypropan-2-yl)thiazol-5-yl)ethynyl)-3-oxo-1H-pyrrolo[1,2-c]imidazol-2(3H)-yl)-2-methyl-2-(methylsulfonyl)butanamide] | 1 (≈ 2.08 µM) | 2 (≈ 4.16 µM) | 2 (≈ 4.16 µM) | –
C[C@@](CCN1Cc2cc(C#Cc3ccc(CN4CCC(N)CC4)cc3)cn2C1=O)(C(=O)NO)S(C)(=O)=O.Cl.Cl [Example 77, (R)-4-(6-((4-((4-aminopiperidin-1-yl)methyl)phenyl)ethynyl)-3-oxo-1H-pyrrolo[1,2-c]imidazol-2(3H)-yl)-N-hydroxy-2-methyl-2-(methylsulfonyl)butanamide dihydrochloride] | 8 | 2 | 16 | –
